Experimental data from ChEMBL document CHEMBL3137667, “[Drug-induced liver injury; fourteenth updated edition of the bibliographic database of liver injuries and related drugs]” (Gastroenterol Clin Biol, 2004).

Key:
[1] = Highest frequency of moderate liver toxicity observed during clinical trials, expressed as a percentage. [column '% BIOL' in source]; conditions: human
[2] = Highest frequency of acute liver toxicity observed during clinical trials, expressed as a percentage. [column '% AIGUE' in source]; conditions: human
[3] = Presence of at least one case with successful reintroduction. [column 'REINT' in source]; conditions: human
[4] = Comments (NB not yet translated). [column 'COMMENTAIRES' in source]; conditions: human
[5] = Times to onset, minimal and maximal, observed in the indexed observations. [column 'DELAI' in source]; conditions: human
[6] = Proposed mechanism(s) of liver damage. [column 'MEC' in source]; conditions: human
[7] = human, serum
[8] = human, serum; remark: listed apart in the source
[9] = human
[10] = human; remark: listed apart in the source
[11] = human; remark: listed apart in the source
[12] = human, serum, 4383 h
[13] = human; remark: listed apart in the source
[14] = human; remark: listed apart in the source
[15] = human; remark: listed apart in the source
[16] = human; remark: listed apart in the source
[17] = human; remark: listed apart in the source
[18] = human; remark: listed apart in the source
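Throughout, for Hepatotoxicity (association with vascular disease): count of indexed literature references reporting vascular liver injury in humans, e.g. peliosis hepatitis, hepatic veno-occlusive disease or Budd-Chiari syndrome.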
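Throughout, for Hepatotoxicity (benign tumour): value is a count of indexed literature references citing a benign tumour confirmed by histopathology.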
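Throughout, for Hepatotoxicity (choleostasis): human cholestatic liver injury, shown by histopathology or by peak ALT or AST elevation over alkaline phosphatase ratio below 2, value counts indexed literature reports.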
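Throughout, for Hepatotoxicity (chronic liver disease): chronic liver injury confirmed by histopathology or persistently raised serum aminotransferase activity beyond 6 months, value given as the count of indexed literature references.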
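Throughout, for Hepatotoxicity (cirrhosis): value is a count of indexed literature references reporting cirrhosis confirmed by histopathology.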
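Throughout, for Hepatotoxicity (cytolytic): human cytolytic liver injury, shown by histopathology or by a ratio above 5 of peak ALT or AST elevation to alkaline phosphatase elevation, value counts indexed references.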
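Throughout, for Hepatotoxicity (granulomatous hepatitis): value is a count of indexed literature references reporting granulomatous liver disease confirmed by histopathology.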
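Throughout, for Hepatotoxicity (malignant tumour): malignant tumour confirmed by histopathology, value gives the count of indexed literature references reporting it.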
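Throughout, for Hepatotoxicity (severe hepatitis): human clinical data: severe hepatitis, meaning potentially life-threatening liver failure or clinically observed cases, the value counts how many indexed literature references report it.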
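Throughout, for Hepatotoxicity (steatosis): steatosis confirmed by histopathology, value is the count of indexed references.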

CO[C@H]1/C=C/O[C@@]2(C)Oc3c(C)c(O)c4c(O)c(cc(O)c4c3C2=O)NC(=O)/C(C)=C\C=C\[C@H](C)[C@H](O)[C@@H](C)[C@@H](O)[C@@H](C)[C@H](OC(C)=O)[C@@H]1C [RIFAMYCIN]
Hepatotoxicity (moderate) [1]: 10% | Hepatotoxicity (acute) [2]: 2.3% | Hepatotoxicity (successful reintroduction) [3]: yes | Hepatotoxicity (comment) [4]: CHOLANGITE I/ISONIAZIDE | Hepatotoxicity (time to onset) [5]: 6 hours - 13 days | Hepatotoxicity (mechanism) [6]: Allergic | Hepatotoxicity (moderate) [7]: 5 | Hepatotoxicity (acute) [8]: 3 | Hepatotoxicity (cytolytic) [9]: 2 | Hepatotoxicity (choleostasis) [10]: 2 | Hepatotoxicity (severe hepatitis) [11]: 0 | Hepatotoxicity (chronic liver disease) [12]: 0 | Hepatotoxicity (cirrhosis) [13]: 0 | Hepatotoxicity (granulomatous hepatitis) [14]: 0 | Hepatotoxicity (association with vascular disease) [15]: 0 | Hepatotoxicity (steatosis) [16]: 0 | Hepatotoxicity (malignant tumour) [17]: 0 | Hepatotoxicity (benign tumour) [18]: 0

COc1ccc(Cl)cc1C(=O)NCCc1ccc(S(=O)(=O)NC(=O)NC2CCCCC2)cc1 [GLYBURIDE]
Hepatotoxicity (moderate) [1]: 6.7% | Hepatotoxicity (acute) [2]: 0% | Hepatotoxicity (successful reintroduction) [3]: yes | Hepatotoxicity (comment) [4]: CHOLANGITE DUCTOPENIE | Hepatotoxicity (time to onset) [5]: 2 weeks - 7 years | Hepatotoxicity (mechanism) [6]: Allergic, Dose-dependant | Hepatotoxicity (moderate) [7]: 7 | Hepatotoxicity (acute) [8]: 14 | Hepatotoxicity (cytolytic) [9]: 2 | Hepatotoxicity (choleostasis) [10]: 10 | Hepatotoxicity (severe hepatitis) [11]: 0 | Hepatotoxicity (chronic liver disease) [12]: 0 | Hepatotoxicity (cirrhosis) [13]: 1 | Hepatotoxicity (granulomatous hepatitis) [14]: 2 | Hepatotoxicity (association with vascular disease) [15]: 0 | Hepatotoxicity (steatosis) [16]: 0 | Hepatotoxicity (malignant tumour) [17]: 0 | Hepatotoxicity (benign tumour) [18]: 0

CCOC(=O)[C@H](CCc1ccccc1)N[C@@H](C)C(=O)N1CCC[C@H]1C(=O)O
Hepatotoxicity (moderate) [1]: 2.8% | Hepatotoxicity (acute) [2]: 0% | Hepatotoxicity (successful reintroduction) [3]: yes | Hepatotoxicity (comment) [4]: DUCTOPENIE RC/CAPTOPRIL | Hepatotoxicity (time to onset) [5]: 10 days - 3 years | Hepatotoxicity (mechanism) [6]: Allergic | Hepatotoxicity (moderate) [7]: 9 | Hepatotoxicity (acute) [8]: 13 | Hepatotoxicity (cytolytic) [9]: 7 | Hepatotoxicity (choleostasis) [10]: 4 | Hepatotoxicity (severe hepatitis) [11]: 3 | Hepatotoxicity (chronic liver disease) [12]: 0 | Hepatotoxicity (cirrhosis) [13]: 0 | Hepatotoxicity (granulomatous hepatitis) [14]: 0 | Hepatotoxicity (association with vascular disease) [15]: 0 | Hepatotoxicity (steatosis) [16]: 0 | Hepatotoxicity (malignant tumour) [17]: 0 | Hepatotoxicity (benign tumour) [18]: 0

O=C(O)c1cccs1 [THIOPHENE CARBOXYLIC ACID]
Hepatotoxicity (moderate) [1]: 0% | Hepatotoxicity (acute) [2]: 0% | Hepatotoxicity (successful reintroduction) [3]: yes | Hepatotoxicity (comment) [4]: AC_ANTI-ML | Hepatotoxicity (time to onset) [5]: 3 days - 3 weeks | Hepatotoxicity (mechanism) [6]: Allergic | Hepatotoxicity (moderate) [7]: 0 | Hepatotoxicity (acute) [8]: 3 | Hepatotoxicity (cytolytic) [9]: 3 | Hepatotoxicity (choleostasis) [10]: 0 | Hepatotoxicity (severe hepatitis) [11]: 0 | Hepatotoxicity (chronic liver disease) [12]: 0 | Hepatotoxicity (cirrhosis) [13]: 0 | Hepatotoxicity (granulomatous hepatitis) [14]: 0 | Hepatotoxicity (association with vascular disease) [15]: 0 | Hepatotoxicity (steatosis) [16]: 0 | Hepatotoxicity (malignant tumour) [17]: 0 | Hepatotoxicity (benign tumour) [18]: 0

CC(=O)N[C@@H](CS)C(=O)O [ACETYLCYSTEINE]
Hepatotoxicity (moderate) [1]: 0% | Hepatotoxicity (acute) [2]: 0% | Hepatotoxicity (successful reintroduction) [3]: yes | Hepatotoxicity (comment) [4]: PERICHOLANGITE | Hepatotoxicity (time to onset) [5]: 4 days | Hepatotoxicity (mechanism) [6]: Dose-dependant | Hepatotoxicity (moderate) [7]: 0 | Hepatotoxicity (acute) [8]: 1 | Hepatotoxicity (cytolytic) [9]: 1 | Hepatotoxicity (choleostasis) [10]: 0 | Hepatotoxicity (severe hepatitis) [11]: 0 | Hepatotoxicity (chronic liver disease) [12]: 0 | Hepatotoxicity (cirrhosis) [13]: 0 | Hepatotoxicity (granulomatous hepatitis) [14]: 0 | Hepatotoxicity (association with vascular disease) [15]: 0 | Hepatotoxicity (steatosis) [16]: 1 | Hepatotoxicity (malignant tumour) [17]: 0 | Hepatotoxicity (benign tumour) [18]: 0

CC1(C)S[C@@H]2[C@H](NC(=O)[C@H](N)c3ccccc3)C(=O)N2[C@H]1C(=O)O [AMPICILLIN]
Hepatotoxicity (moderate) [1]: 20% | Hepatotoxicity (acute) [2]: 0% | Hepatotoxicity (successful reintroduction) [3]: yes | Hepatotoxicity (comment) [4]: #CBP CHOLECYSTITE_ACALCULEUSE | Hepatotoxicity (time to onset) [5]: 2 days - 2 weeks | Hepatotoxicity (mechanism) [6]: Allergic | Hepatotoxicity (moderate) [7]: 7 | Hepatotoxicity (acute) [8]: 9 | Hepatotoxicity (cytolytic) [9]: 3 | Hepatotoxicity (choleostasis) [10]: 4 | Hepatotoxicity (severe hepatitis) [11]: 1 | Hepatotoxicity (chronic liver disease) [12]: 0 | Hepatotoxicity (cirrhosis) [13]: 0 | Hepatotoxicity (granulomatous hepatitis) [14]: 0 | Hepatotoxicity (association with vascular disease) [15]: 0 | Hepatotoxicity (steatosis) [16]: 0 | Hepatotoxicity (malignant tumour) [17]: 0 | Hepatotoxicity (benign tumour) [18]: 0

C#C[C@]1(O)CC[C@H]2[C@@H]3CCC4=Cc5oncc5C[C@]4(C)[C@H]3CC[C@@]21C [DANAZOL]
Hepatotoxicity (moderate) [1]: 42.1% | Hepatotoxicity (acute) [2]: 9.4% | Hepatotoxicity (successful reintroduction) [3]: yes | Hepatotoxicity (comment) [4]: HNF | Hepatotoxicity (time to onset) [5]: 3 days - 20 years | Hepatotoxicity (mechanism) [6]: Dose-dependant | Hepatotoxicity (moderate) [7]: 32 | Hepatotoxicity (acute) [8]: 13 | Hepatotoxicity (cytolytic) [9]: 6 | Hepatotoxicity (choleostasis) [10]: 8 | Hepatotoxicity (severe hepatitis) [11]: 2 | Hepatotoxicity (chronic liver disease) [12]: 0 | Hepatotoxicity (cirrhosis) [13]: 0 | Hepatotoxicity (granulomatous hepatitis) [14]: 0 | Hepatotoxicity (association with vascular disease) [15]: 2 | Hepatotoxicity (steatosis) [16]: 0 | Hepatotoxicity (malignant tumour) [17]: 5 | Hepatotoxicity (benign tumour) [18]: 12

NC1=NC(=O)C(c2ccccc2)O1 (configuration not stated) [PEMOLINE]
Hepatotoxicity (moderate) [1]: 2% | Hepatotoxicity (acute) [2]: 0.3% | Hepatotoxicity (successful reintroduction) [3]: yes | Hepatotoxicity (comment) [4]: AC_ANTI-MF/-N AGGRAVATION_HEPATITE_AUTOIMMUNE | Hepatotoxicity (time to onset) [5]: 3 days - 3 years | Hepatotoxicity (mechanism) [6]: Allergic, Dose-dependant | Hepatotoxicity (moderate) [7]: 4 | Hepatotoxicity (acute) [8]: 16 | Hepatotoxicity (cytolytic) [9]: 14 | Hepatotoxicity (choleostasis) [10]: 0 | Hepatotoxicity (severe hepatitis) [11]: 10 | Hepatotoxicity (chronic liver disease) [12]: 0 | Hepatotoxicity (cirrhosis) [13]: 0 | Hepatotoxicity (granulomatous hepatitis) [14]: 0 | Hepatotoxicity (association with vascular disease) [15]: 0 | Hepatotoxicity (steatosis) [16]: 1 | Hepatotoxicity (malignant tumour) [17]: 0 | Hepatotoxicity (benign tumour) [18]: 0

O=C(O)COCCN1CCN(C(c2ccccc2)c2ccc(Cl)cc2)CC1 (configuration not stated) [CETIRIZINE]
Hepatotoxicity (moderate) ([1]; Liver): 3.8% | Hepatotoxicity (acute) ([2]; Liver): 0% | Hepatotoxicity (successful reintroduction) [3]: yes | Hepatotoxicity (comment) [4]: AC_ANTI-MFR1 | Hepatotoxicity (time to onset) [5]: 1 day - 2 years | Hepatotoxicity (mechanism) [6]: Allergic | Hepatotoxicity (moderate) [7]: 1 | Hepatotoxicity (acute) [8]: 5 | Hepatotoxicity (cytolytic) [9]: 4 | Hepatotoxicity (choleostasis) [10]: 1 | Hepatotoxicity (severe hepatitis) ([11]; Liver): 0 | Hepatotoxicity (chronic liver disease) [12]: 0 | Hepatotoxicity (cirrhosis) [13]: 0 | Hepatotoxicity (granulomatous hepatitis) [14]: 0 | Hepatotoxicity (association with vascular disease) [15]: 0 | Hepatotoxicity (steatosis) [16]: 0 | Hepatotoxicity (malignant tumour) [17]: 0 | Hepatotoxicity (benign tumour) [18]: 0
